Here are results for two compounds from US10912743B2, “Compositions for treating inflammation and methods of treating the same” (Novan, Inc., priority 2016, dated 2021).

Assay [1] has as its system oxazolone-induced ear swelling. The assay can be described thus: Oxazolone-induced ear swelling assay in BALB/c mice. The format is in vivo.
Protocol: Groups of 5 BALB/c male mice weighing 22±2 g were used. The animals were sensitized by application of oxazolone (100 μL, 1.5% in acetone) to their preshaved abdominal surface. Seven days later, test substances (20 mg/ear) and vehicle (20 μL/ear) were applied topically to the anterior and posterior surfaces of the right ear 30 min before and 15 min after oxazolone (1%, 20 μL/ear) challenge. Ear swelling was measured with a Dyer model micrometer gauge at 24 hours after oxazolone challenge as an index of inflammation. Ear edema was calculated by subtracting the thickness of the left ear (normal control) from the right ear (treated ear). Percent inhibition was calculated according to the formula: (Ic −It)/Ic×100, where Ic and It refers to increase of ear thickness (mm) in control and treated mice, respectively. One-way ANOVA and Dunnett's test were used to determine statistical significance between vehicle control and treated groups. Significance is set at P<0.05.
Test substances and vehicles were each administered topically (TOP) at 30 minutes before and 15 minutes after challenge with the second application of oxazolone.
The test system used was a 7-day oxazolone-induced ear swelling assay. […] Ear swelling was measured with a Dyer model micrometer gauge at 24 hours after oxazolone challenge as an index of inflammation. Ear edema was calculated by subtracting the thickness of the left ear (normal control) from the right ear (treated ear) (Table 9). […] Percent inhibition was calculated according to the formula: (Ic−It)/Ic×100, where Ic and It refer to increase of ear thickness (mm) in control and treated mice, respectively. […]
BALB/c mice are sensitized with oxazolone exposure to the abdomen and are subsequently challenged (7 days post-sensitization) with oxazolone application to the right ear. […] The effect of anti-inflammatory test articles is then assessed by measuring the amount of ear swelling, which is reported as a percentage in comparison to the study vehicle. […]
The test system of assay [2] is Th17/IL-17 pathway. The settings on record: skin biopsies stimulated with cytokine cocktail 48 hrs; cited from earlier work.

Molecules are shown by their SMILES. Marks after values point to notes of the source that are not given here.

With `C[C@@H]1C[C@H]2[C@@H]3CCC4=CC(=O)C=C[C@]4(C)[C@@]3(F)[C@@H](O)C[C@]2(C)[C@@]1(O)C(=O)CO` [Dexamethasone], the “Ear Swelling % Inhibition (vs. Vehicle A)” value in assay [1] (Example 2 study, TOP x 2 (30 min before, 15 min after oxazolone challenge), 24 hours, vs acetone/ethanol 1/1) is listed as 85* %. Also, the “% inhibition of oxazolone-induced ear swelling vs ethanol/acetone” value in assay [1] (Example 4 study, TOP x 2, 24 hours) is listed as 86%. The “Net Swelling on Right Ear (Mean ± SEM, ×0.01 mm)” value in assay [1] (Example 4 study, TOP x 2, 24 hours after oxazolone challenge) was found to be 3.2 ± 0.4 ×0.01 mm.
In the case of `C=C1/C(=C\C=C2/CCC[C@]3(C)[C@@H]([C@H](C)/C=C/[C@@H](O)C4CC4)CC[C@@H]23)C[C@@H](O)C[C@@H]1O` [calcipotriol], in assay [2], the IL-17 secretion result is “partial inhibition of IL-17 secretion”.
